In patent publication US7262218B2, “Forms of pravastatin sodium” (Teva Gyogyszergyar Zartkoruen Mukodo Reszvenytarsasag, priority 1999, dated 2007):

Legend:
[1] = Solid-form stability on exposure at 100% relative humidity (X-ray diffraction); type: physicochemical; conditions: one week
From the text: The water uptake at 80% relative humidity after 1 week was up to about 15%. After exposure at 100% relative humidity, all the forms of pravastatin sodium transform to Form C with about […].
Pravastatin sodium was exposed at 100% relative humidity for one week.

[2] = system: serum cholesterol levels; conditions: human subjects with normal hepatic function and moderate body weight; daily dosages of 10 mg or more; cited from earlier work
[3] = Solid-form stability on storage at 40-80% relative humidity for two weeks (X-ray diffraction); type: physicochemical; conditions: two weeks at relative humidity of between 40-80%
Procedure: Pravastatin sodium Form G may be prepared by storing pravastatin sodium Form F for 2 weeks at a relative humidity of about 40 to about 80%. […] The resulting solid was analyzed by X-ray diffraction without further treatment.

[4] = Solid-form stability on drying under vacuum (X-ray diffraction); type: physicochemical
Procedure: Most of these forms have a jelly appearance. By drying these samples at 60° C., vacuum overnight, the powdered Form D is obtained.
Pravastatin sodium (7 g) was dissolved in deionized water (13 ml) and diluted with acetone (14.3 ml). The resulting solution was stirred over charcoal (0.07 g.) to decolorize. The charcoal was removed by filtration and rinsed with a 10:1 mixture of acetone:water (15.7 ml). The combined pravastatin sodium solution and rinsate was then diluted with acetone (42.8 ml) and cooled to −10° C. At the reduced temperature, more acetone (143 ml) was slowly added over one half hour. The solution was then maintained at −10° C. for three hours during which time pravastatin sodium crystallized. The crystals were then isolated by filtration, washed with 1% water in acetone that had been pre-cooled to −10° C. (28 ml) and then again with anhydrous acetone (28 ml). The crystals were then dried under vacuum at 50° C. […]
Pravastatin crystals were filtered and washed with 160 L acetone containing 2% water and cooled to between 2-5° C. Then the wet cake was washed once more with 160 L of pure acetone. The product was dried under vacuum by gradual heating to 60° C. The crystals were identified by X-ray diffraction as Form L. The water content was 16.8% and the acetone content was 0%. After prolonged drying the water content was reduced to 10.7%. A mixture of Form L and D was identified.

For `CC[C@H](C)C(=O)O[C@H]1C[C@H](O)C=C2C=C[C@H](C)C(CC[C@@H](O)C[C@@H](O)CC(=O)O)[C@H]21` (relative stereo) [Pravastatin sodium, [1S-[1α(β*,δ*)2α,6α,8β(R*),8aα]]-1,2,6,7,8,8a-hexahydro-β,δ,6-trihydroxy-2-methyl-8-(2-methyl-1-oxobutoxy)-1-naphthalene-heptanoic acid], the “crystal form after exposure at 100% relative humidity” value [1] is listed as “found to be Form C” and the “effect on serum cholesterol levels” value [2] is listed as “reduction in serum cholesterol levels”.

In the case of `CC[C@H](C)C(=O)O[C@H]1C[C@H](O)C=C2C=C[C@H](C)[C@H](CC[C@@H](O)C[C@@H](O)CC(=O)O)[C@H]21` [Form F, pravastatin sodium], the “crystal form after storage at humidity” value [3] is reported as “Form G is obtained”.

For `CC[C@H](C)C(=O)O[C@H]1C[C@H](O)C=C2C=C[C@H](C)[C@H](CC[C@@H](O)C[C@@H](O)CC(=O)O)[C@H]21` [Form H, pravastatin sodium], the “crystal form after drying under vacuum overnight” value [4] was “converted to Form D”.

For `CC[C@H](C)C(=O)O[C@H]1C[C@H](O)C=C2C=C[C@H](C)[C@H](CC[C@@H](O)C[C@@H](O)CC(=O)O)[C@H]21` [Form I, pravastatin sodium], the “crystal form after drying under vacuum overnight” value [4] was “transformed to Form D”.

For `CC[C@H](C)C(=O)O[C@H]1C[C@H](O)C=C2C=C[C@H](C)[C@H](CC[C@@H](O)C[C@@H](O)CC(=O)O)[C@H]21` [Form J, pravastatin sodium], the “crystal form after drying under vacuum overnight” value [4] was “transformed to Form D”.

For `CC[C@H](C)C(=O)O[C@H]1C[C@H](O)C=C2C=C[C@H](C)C(CC[C@@H](O)C[C@@H](O)CC(=O)O)[C@H]21` (some centres unmarked) [Form L, pravastatin sodium], the “crystal form after drying under vacuum at 50° C.” value ([4]; dried under vacuum at 50° C. (Example 6)) was “after drying the crystals were Form D” and the “crystal form after further drying under vacuum” value ([4]; vacuum, gradual heating to 60° C., further drying to 2.5% water content (Example 23)) was “transformed to pure Form D”.
